Experimental data: patent US20170266174A1, “Compositions and Methods for Extending Lifespan” (COLLABORATIVE MEDICINAL DEVELOPMENT LLC, priority 2014, published 2017)
Entries after “also recorded” stand apart in the source; their conditions may differ.

Columns and labels:
C. elegans [1] = test: Lifespan analysis of C. elegans treated with SIH; format: in vivo, Caenorhabditis elegans; conditions: for median lifespan: 25° C., treated from adulthood onwards, control (0 μM SIH) 12 days
Experimental: The effects of genetic ablation of ftn-2 and ftn-1 on wild type was measured using established protocols(11, 38). For SIH treatment compound was dissolved in dimethyl sulfoxide (Sigma-Aldrich) then added to the molten NGM at 55° C. along with 50 μg/mL amplicillin (Sigma-Aldrich). Media containing equivalent vehicle alone (0.5% v/v DMSO) and ampicillin was used for comparison. SIH data was collected using the temperature sensitive-sterile strain TJ1060. All life span assays were conducted at 25° C. following adulthood.
Kaplan-Maier survival curves were generated and compared via non-parametric Log rank tests (Prism v5.0d, Graphpad Software).

C. elegans [2] = test: SEC-ICP-MS (LC-ICP-MS) chromatographic distribution of iron in SIH-treated C. elegans; format: in vivo, Caenorhabditis elegans
Experimental: Samples were homogenized in TBS (pH 8.0) with added proteinase inhibitors (EDTA-free, Roche), then clarified by a 15 min centrifugation at 175,000 g, 4° C. The protein concentration of the supernatant was determined via UV absorbance (Nanodrop, ThermoScientific) and equivalent protein amounts were size-excluded using a Bio SEC-5 (4.6×300 mm, 5 μm, Agilent) column with 200 mM ammonium nitrate (trace analysis grade, Sigma) pH 8.0 buffer the flow rate was 0.4 mL/min at 30° C. The eluant from the column was directly connected to the ICP-MS for elemental detection as previously described (37).

[3] = test system: lysates of young adult wild type C. elegans; test: Ex vivo ROS production detected by DCF fluorescence from C. elegans lysates; format: biochemical, Caenorhabditis elegans; conditions: 50 μM DTPA added to lysate (10 μg) of young adult wild type
Experimental: 2′,7′-dichlorodihydrofluorescein diacetate (DCFH-DA) at 10 μM was used as a fluorescent probe for reactive oxygen species (ROS) detection in vivo using standard protocols (33). DCFH-DA enters and accumulates in the intestinal cells, where it is oxidized by several ROS (including hydroxyl radicals) to form the fluorophore DCF(34). Analysis of fluorescence rate increase was performed on samples sonicated in 1×TBS, pH 7.4 and recovered as the supernatant from a 100,000 g centrifugation at 4° C. Total protein concentration was determined by a Nanodrop spectrophotometer (Thermo Scientific). […] Fluorescence in 8 replicate wells was quantitated (Ex: 485 nm, Em: 535 nm using a 495 nm cut-off) by a FlexStation (Molecular Devices) plate reader, using 30 reads every minute for 1 h at medium PMT setting. Values from lysate-free (negative) controls were subtracted and the fluorescence data was then base line corrected. A linear regression fitted from 20-40 minutes and the slopes were normalized against 4-day old wild type and plotted (Prism v5.0d, Graphpad Software).

Compound: O=C(NN=Cc1ccccc1O)c1ccncc1 [SIH, salicylaldehyde isonicotinoyl hydrazone]
- dose-dependency of lifespan extension (C. elegans [1]; 0, 100, 250 μM SIH): dose-dependency
- median lifespan (C. elegans [1]; 100 μM SIH): 17 days
- median lifespan (C. elegans [1]; 250 μM SIH): 21 days
- increase in lifespan (C. elegans [1]; control versus 250 μM SIH median lifespan): 75%
- Ferritin-bound iron (Peak #2) effect (C. elegans [2]; 250 μM SIH, 10 day old, integration of peak area): reduced; also recorded: decreased
- LMW-iron (Peak #3) effect in words (C. elegans [2]; 250 μM SIH, 10 day old, integration of peak area from triplicate data): reduced; also recorded: lowered; also recorded: attenuated
- HMW-iron (Peak #1) effect (C. elegans [2]; 250 μM SIH, C. elegans aged to 10 days): unaffected
- LMW-iron (Peak #3) normalized peak area change (C. elegans [2]; 250 μM SIH, C. elegans aged to 10 days, versus control): −43%
- total soluble zinc effect (C. elegans [2]; SIH treatment (data not shown)): unaffected

Compound: diethylenetriamine penta-acetic acid [DTPA]
- ROS production (DCF fluorescence) effect [3]: abolished; also recorded: silenced
